Here are results for 8 compounds from ChEMBL document CHEMBL1201862, “PubChem BioAssay data set” (2004).

Among the test systems are Hs-578T; RXF 393; MDA-MB-231; U-251; A549; OVCAR-8; SN12C; SF-539; EKVX; K562; DU-145; ACHN; NCI-H226; SK-MEL-28; OVCAR-5; NCI-H23; MDA-N; SF-295.
Holding throughout (experiment): NCI anticancer screen, dose series, 48 h

The structures appear in SMILES notation.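 Five compound concentrations were applied to cells in 96-well plates for 48 hours; endpoints were derived by simple linear interpolation of the resulting dose-response curve. Abbreviation: GI50, concentration required for 50% inhibition of growth.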 Activity calls are given as the source filed them. Cut-off read from the data, not from the text of the source: active = GI50 up to about 1.1 µM and inactive = higher. *1 amine or outer side, *2 acyl side, *3 side chain or, on linkers, in order; H or OH if unused. Where a SMILES comes first, the peptide text is derived from it. [ ]: non-standard residue; d: D form. The star is where a group is joined. ξ: configuration not given here. X53 = CC(C)C[C@H](N[*:1])C1=N[C@H](C(=O)[*:2])CS1; Ile(3ξ) = CCC(C)[C@H](N)C(=O)O; Allyl(1,1-Me2) = C=CC(C)(C)* A value given as a limit tells only on which side of the number the result lay.

Consider `O=c1cc(NNc2ccccc2)[nH]c(=S)[nH]1`, for which the GI50 in the assay with Hs-578T is > 100 µM (inactive); in the assay on RXF 393, 50.2 µM (inactive); in the assay on MDA-MB-231, 32.1 µM (inactive); in the assay on U-251, 45 µM (inactive); with A549 it was > 100 µM (inactive); with OVCAR-8 it was 36.1 µM (inactive). The GI50 in the assay on SN12C was > 100 µM (inactive); in the assay with SF-539, 50.2 µM (inactive); with EKVX, 98.9 µM (inactive); in the assay with K562, 32.4 µM (inactive); with DU-145 it was 64.9 µM (inactive); in the assay with ACHN, 43.7 µM (inactive). Moreover, the GI50 with NCI-H226 was > 100 µM (inactive); in the assay on SK-MEL-28, 42.7 µM (inactive); in the assay with OVCAR-5, > 100 µM (inactive); with NCI-H23, 47.1 µM (inactive); in the assay on MDA-N it was 40.6 µM (inactive); in the assay on SF-295, > 100 µM (inactive).

Consider `CC(C)=CCC[C@@H](C)c1c2nc3ccccc3[nH]c-2c(C)c(=O)c1O`, for which the GI50 is 2.28 µM (inactive) with Hs-578T; 1.14 µM (inactive) with RXF 393; 1.73 µM (inactive) in the assay on MDA-MB-231; 1.6 µM (inactive) in the assay on U-251; 2.37 µM (inactive) in the assay with A549; 1.71 µM (inactive) with OVCAR-8. The GI50 in the assay with SN12C was 1.24 µM (inactive); in the assay with SF-539 it was 2.08 µM (inactive); in the assay on EKVX it was 2.7 µM (inactive); with K562, 1.41 µM (inactive); with DU-145, 1.61 µM (inactive); in the assay with ACHN it was 0.568 µM (active). For the same compound, the GI50 is 1.4 µM (inactive) with NCI-H226; 4.38 µM (inactive) in the assay on SK-MEL-28; 3.52 µM (inactive) in the assay on OVCAR-5; 1.89 µM (inactive) with NCI-H23; 2.09 µM (inactive) with MDA-N; 0.946 µM (active) with SF-295.

Turning to `S=C1NCCN1C(=S)NC1CCCCC1`, the GI50 in the assay with Hs-578T was 21.2 µM (inactive); in the assay with RXF 393, 4.28 µM (inactive); in the assay on MDA-MB-231, 44.8 µM (inactive); in the assay on U-251, 37 µM (inactive); in the assay on A549, 27 µM (inactive); with OVCAR-8, 47.6 µM (inactive). Besides, the GI50 in the assay with SN12C was 38.2 µM (inactive); in the assay with SF-539, 21 µM (inactive); in the assay with EKVX, 29.1 µM (inactive); with K562 it was 36.8 µM (inactive); in the assay on DU-145, 49.8 µM (inactive); in the assay with ACHN, 32.7 µM (inactive). Further, the GI50 in the assay with NCI-H226 was 22.2 µM (inactive); in the assay with SK-MEL-28, 29 µM (inactive); with OVCAR-5 it was > 100 µM (inactive); with NCI-H23 it was 21.8 µM (inactive); with MDA-N, 36.9 µM (inactive); in the assay with SF-295, 37.2 µM (inactive).

Consider `COC(=O)c1c2c(cc3c1CC1(Cc4ccccc4C1=O)C3)CCC2` (stereo unspecified), for which the GI50 in the assay with Hs-578T is 50 µM (inactive); in the assay on RXF 393, 19.5 µM (inactive); in the assay with MDA-MB-231, 21.4 µM (inactive); in the assay with U-251 it was 56.5 µM (inactive); in the assay with A549, 20.7 µM (inactive); in the assay on OVCAR-8 it was 44.1 µM (inactive). For the same compound, the GI50 in the assay with SN12C is 25.7 µM (inactive); in the assay on SF-539, 71.1 µM (inactive); in the assay with EKVX it was 15.9 µM (inactive); in the assay with K562, 8.34 µM (inactive); with DU-145, > 100 µM (inactive); in the assay on ACHN, 23.9 µM (inactive). Further, the GI50 with NCI-H226 was 2.58 µM (inactive); in the assay on SK-MEL-28, 93.3 µM (inactive); in the assay on OVCAR-5 it was > 100 µM (inactive); in the assay with NCI-H23 it was 38.8 µM (inactive); in the assay with MDA-N, 8.55 µM (inactive); with SF-295, 55.6 µM (inactive).

`O=[N+]([O-])c1ccc2oc(=N/c3ccccc3)/c(=N\c3ccccc3)[nH]c2c1`: the GI50 is 19.7 µM (inactive) in the assay on Hs-578T; 24.9 µM (inactive) with RXF 393; 7.87 µM (inactive) in the assay with MDA-MB-231; 40.9 µM (inactive) in the assay on U-251; 59.8 µM (inactive) in the assay with A549; 75.3 µM (inactive) with OVCAR-8. In addition, the GI50 in the assay on SN12C is 46.5 µM (inactive); in the assay on SF-539, 39.7 µM (inactive); with EKVX, 70.5 µM (inactive); in the assay with K562 it was > 100 µM (inactive); in the assay with DU-145, > 100 µM (inactive); in the assay on ACHN, 24.7 µM (inactive). The GI50 with NCI-H226 is > 100 µM (inactive); in the assay with SK-MEL-28, > 100 µM (inactive); in the assay on OVCAR-5 it was > 100 µM (inactive); in the assay with NCI-H23, 57.4 µM (inactive); in the assay on MDA-N it was 54.5 µM (inactive); in the assay with SF-295, 47.9 µM (inactive).

Consider `C=CC(C)(C)OC[C@@H]1NC(=O)CNC(=O)[C@@H]2CCCN2C(=O)[C@H](C(C)CC)NC(=O)[C@@H]2CSC(=N2)[C@H](CC(C)C)NC1=O` (stereo partly specified) (cyclo(GS(Allyl(1,1-Me2))[X53][Ile(3ξ)]P)), for which the GI50 in the assay on Hs-578T is 23.2 µM (inactive); in the assay with RXF 393, > 100 µM (inactive); in the assay with MDA-MB-231, > 100 µM (inactive); with U-251, > 100 µM (inactive); in the assay with A549, 80 µM (inactive); with OVCAR-8 it was 69.3 µM (inactive). In addition, the GI50 is > 100 µM (inactive) in the assay with SN12C; > 100 µM (inactive) in the assay with SF-539; 64.3 µM (inactive) with EKVX; 41.7 µM (inactive) with K562; 77.6 µM (inactive) in the assay with DU-145; 76.6 µM (inactive) in the assay on ACHN. Further, the GI50 was > 100 µM (inactive) in the assay with NCI-H226; > 100 µM (inactive) in the assay with OVCAR-5; 43.9 µM (inactive) in the assay with NCI-H23; > 100 µM (inactive) in the assay on MDA-N; 45.2 µM (inactive) with SF-295.

Consider `COc1ccc(C(=O)/C=C/c2ccc(OCCCCCCCCCCOc3ccc(/C=C/C(=O)c4ccc(OC)cc4)cc3)cc2)cc1`, for which the GI50 in the assay with Hs-578T, with RXF 393, with MDA-MB-231, in the assay on U-251, in the assay on A549 and in the assay on OVCAR-8 was > 100 µM (inactive) each time. The GI50 in the assay on SN12C, in the assay on SF-539, in the assay on EKVX, in the assay on K562, in the assay with DU-145 and with ACHN was > 100 µM (inactive) throughout. For the same compound, the GI50 with NCI-H226, in the assay on SK-MEL-28, in the assay on OVCAR-5, in the assay with MDA-N and in the assay on SF-295 was > 100 µM (inactive) each time.

Turning to `O=c1[nH]nc(-c2ccccc2)n1/N=C/c1ccccc1O`, the GI50 in the assay on Hs-578T is 29.3 µM (inactive); with RXF 393 it was 29.7 µM (inactive); with MDA-MB-231, 70 µM (inactive); with U-251, 41.6 µM (inactive); in the assay with A549, > 100 µM (inactive); with OVCAR-8 it was 47.6 µM (inactive). Moreover, the GI50 is > 100 µM (inactive) in the assay on SN12C; 78.2 µM (inactive) in the assay on SF-539; 67.9 µM (inactive) with EKVX; > 100 µM (inactive) with K562; > 100 µM (inactive) in the assay with DU-145; 63.2 µM (inactive) in the assay with ACHN. The GI50 is > 100 µM (inactive) in the assay on NCI-H226; > 100 µM (inactive) in the assay with OVCAR-5; > 100 µM (inactive) with NCI-H23; > 100 µM (inactive) in the assay on MDA-N; 71 µM (inactive) with SF-295.
